According to US20210205401A1, “SYNERGISTIC DIETARY SUPPLEMENT COMPOSITIONS FOR THE PREVENTION, TREATMENT OR CONTROL OF INFLAMMATORY DISORDERS” (LAILA NUTRACEUTICALS, priority 2014, published 2021):

Legend:
[1] = system: Freund's Complete Adjuvant induced arthritis model of Sprague Dawley rats; assay: In-vivo anti-inflammatory activity of Composition-7, Freund's Complete Adjuvant induced arthritis model (Example 18); details: Composition-7 200 mg/kg body weight p.o., Prednisolone 10 mg/kg, daily for 35 days, vs CMC control
Excerpt: The in-vivo anti-inflammatory activity of composition-7, comprising the water extract of 36 g of Terminalia chebula, 18 g of methanol extract of Curcuma longa, 18 g of Boswellia serrata non-acidic resin extract (BNRE), 18 g of Boswellia serrata extract standardized to 75%-85% total acids by volumetric assay which contain 5% 3-O-acetyl-11-keto-β-boswellic acid (AKBA) and 10 g of excipients [Microcrystalline cellulose (MCC) and Syloid], so that their percentages in the composition are 36%, 18%, 18%, 18% and 10% respectively was evaluated by an in-vivo study in Freund's Complete Adjuvant induced arthritis model of Sprague Dawley rats.
Prednisolone was used as a positive control. The healthy male SD rats were selected and randomly divided into four groups containing six animals per group. The treatment group rats were supplemented daily with 200 mg/kg body weight of Composition-7 for 35 days. The positive control group was supplemented daily with Prednisolone at 10 mg/kg body weight. All supplements were diluted in 10 mL of 1% CMC for administration. The animals of control group received same volume of 1% CMC. […] Paw volumes and weight bearing capacities were respectively measured using Plethysmography equipment and Incapacitance Meter on the day of FCA injection and on 35th day of treatment. […]

[2] = system: Freund's Complete Adjuvant induced arthritis model of Sprague Dawley (SD) rats; assay: In-vivo anti-inflammatory activity of Composition-1, Freund's Complete Adjuvant induced arthritis model (Example 17); details: Composition-1 200 mg/kg body weight, Prednisolone 10 mg/kg, daily for 35 days, vs CMC control
Procedure: The in-vivo anti-inflammatory activity of composition-1, comprising the water extract of 50 g of Terminalia chebula, 25 g of methanol extract of Curcuma longa, 25 g of Boswellia serrata non-acidic resin extract (BNRE), so that their percentages in the composition are 50%, 25% and 25% respectively was evaluated by an in-vivo study in Freund's Complete Adjuvant induced arthritis model of Sprague Dawley (SD) rats.
Prednisolone was used as a positive control. The healthy male SD rats were selected and randomly divided into four groups containing six animals per group. The treatment group rats were supplemented daily with 200 mg/kg body weight of Composition-1 for 35 days. The positive control group was supplemented daily with Prednisolone at 10 mg/kg body weight. All supplements were diluted in 10 mL of 1% CMC for administration. The animals of control group received same volume of 1% CMC. At the 7th day, Freund's Complete Adjuvant (FCA) was injected subcutaneously in the sub-plantar region of the left hind paw of each animal. Paw volumes and weight bearing capacities were respectively measured using Plethysmography equipment and Incapacitance Meter on the day of FCA injection and on 35th day of treatment. The difference in volume of paw edema is considered as the inflammatory response. […]

In the case of `C[C@]12C=CC(=O)C=C1CC[C@@H]1[C@@H]2[C@@H](O)C[C@@]2(C)[C@H]1CC[C@]2(O)C(=O)CO` [Prednisolone], the “% inhibition of Paw edema” value [1] is reported as 68.67% and the “% inhibition of Paw edema” value [2] is reported as 72.73%.
